Test results as given in patent US20200370076A1, “USE OF GALACTURONATE AND OR GALACTURONATE POLYMERS IN CONJUNCTION WITH CARBOHYDRATES TO CONTROL METABOLIC STATE OF ORGANISMS” (Department of the Army, U.S. Army CCDC Army Research …, priority 2019, published 2020).

Assays:
[1] = test system: Clostridium acetobutylicum; assay: Substrate concentration over time during co-fed fermentation (FIG. 4); format: cell-based
Description: FIG. 4 is a graph illustrating the uptake of individual oxidized sugars mixed for co-feeding during a fermentation process of Clostridial acetobutylicum; FIG. 4, with reference to FIGS. 1 through 3, is a graph illustrating the concentration of various feedstock during a fermentation process. […] The co-utilization of any of galacturonate and galacturonate polymers with glucose could be used to control the metabolic state of the cells by altering the production of reduced electron carriers such as NADH and/or NADPH. This can allow for fine-tuning production of chemicals. The overall trend of the concentration over time shown in FIG. 4 for galacturonic (gal) acid and glucose (glu) is generally the same; i.e., a gradual decrease in the concentration over time. For example, the concentration of the galacturonic acid is approximately 7.5 at time 0 with a gradual decline in concentration to approximately 4 at approximately 3 hours, followed by a greater decline in concentration resulting in a 0 concentration at approximately 7 hours.

[2] = test system: Clostridium acetobutylicum; assay: Fermentation product formation by Clostridium acetobutylicum grown on different substrates; format: cell-based; details: organism grown on the named substrate
Method: Experimentally, mixtures of any of galacturonate and galacturonate polymers with glucose are fed to Clostridium acetobutylicum. It was observed that the organism co-utilized the substrates. […] Bacterial culture conditions and strains have been previously published. […] Clostridium acetobutylicum strain ATCC 824 was obtained from ATCC and cultured using company protocol at 37° C. into Clostridial growth medium or CGM containing 0.75 g KH2PO4, 0.75 g K2HPO4, 1.0 g NaCl, 0.017 g MnSO4.5H2O, 0.70 g MgSO4.7H2O, 0.01 g FeSO4.7H2O, 2.0 g […], 5.0 g yeast extract, 2.0 g (NH4)2SO4, and 0.5% final concentration of desired carbohydrate-D-glucose, D-galacturonic acid, D-gluconic acid-at pH 6.5. Active cultures from initial growth stock were added to potato glucose medium to be maintained and stored as a spore solution. Potato glucose medium or PGM contains per liter of H2O-150 g grated fresh potato, 10 g D-glucose, 0.5 g (NH4)SO4, and 3 g CaCO3. The medium was boiled for 1 hour and strained through gauze before sterilization and use for culture. Spore solution was activated for culturing through a heat shock at 80° C. for 9 minutes. Shocked spore solution was added to CGM containing the feed stock of choice and grown to late log of 0.8 at optical density of 600 nm (OD600) at 37° C. Theses cultures were then used to perform antibiotic sensitivity experiments.

In the case of O=C[C@H](O)[C@@H](O)[C@@H](O)[C@H](O)C(=O)O [galacturonate, D-galacturonic acid], the “concentration of feedstock during fermentation” value (“concentration” for short) ([1]; FIG. 4, approximately 3 hours) is reported as “approximately 4”, the “concentration” value ([1]; FIG. 4, approximately 7 hours) is reported as 0 and the “concentration” value ([1]; FIG. 4, glucose/galacturonate co-feeding, time 0) is reported as “approximately 7.5”. The acetate produced [2] was “approximately 23.6 mM” and the butyrate produced [2] was “approximately 0.6 mM”.
